One compound from ChEMBL document CHEMBL4145544, “Discovery and optimization of 1-(1H-indol-1-yl)ethanone derivatives as CBP/EP300 bromodomain inhibitors for the treatment of castration-resistant prostate cancer” (Eur J Med Chem, 2018) can be followed below.

The subject of assay [1] is CWR22R. As to the kind of experiment: Anticlonogenic activity against human 22Rv1 cells after 14 days by crystal violet staining based assay. In kind it is functional, cell-based.
In assay [2] the test system is CWR22R. Put plainly: Anticlonogenic activity against human 22Rv1 cells at 4 uM after 14 days by crystal violet staining based assay relative to control. In kind it is functional.
Assay [3] relates to LNCaP C4-2B. Put plainly: Anticlonogenic activity against human C4-2B cells after 14 days by crystal violet staining based assay. In kind it is functional, cell-based.
Assay [4] concerns CWR22R. As to the kind of experiment: cells. As to conditions: Homo sapiens, 22Rv1, 72 h.
Description: Antiproliferative activity against human 22Rv1 cells after 72 hrs by Cell-Titer Glo assay
Assay [5] relates to CWR22R. Put plainly: Potency index, ratio of enzalutamide IC50 to compound IC50 for antiproliferative activity against human 22Rv1 cells. In kind it is functional.
For assay [6], the system named is LNCaP. Put plainly: Antiproliferative activity against human LNCAP cells after 72 hrs by Cell-Titer Glo assay. In kind it is functional, cell-based. The settings on record: Homo sapiens, LNCaP, 72 h; read-out: IC50.
Assay [7] relates to LNCaP. Put plainly: Potency index, ratio of enzalutamide IC50 to compound IC50 for antiproliferative activity against human LNCAP cells. In kind it is functional.
The subject of assay [8] is LNCaP C4-2B. As to the kind of experiment: Anticlonogenic activity against human C4-2B cells at 4 uM after 14 days by crystal violet staining based assay relative to control. In kind it is functional.

What is called IC50 is the concentration that gives 50% inhibition.

`COc1ccc2c(c1)c(C(=O)Nc1cc(C(=O)OC(C)(C)C)cc(-c3cnn(C)c3)c1)cn2C(C)=O`: the Activity entry is “Dose-dependent effect” with CWR22R [1], less than 10% in the assay with CWR22R [2], “Dose-dependent effect” in the assay with LNCaP C4-2B [3] and less than 10% with LNCaP C4-2B [8]. In addition, the figures for the IC50 in the assay with CWR22R [4] and in the assay with LNCaP [6] were 2.22 µM and 1.28 µM, respectively. Moreover, the “Ratio IC50” value in the assay on CWR22R [5] and in the assay on LNCaP [7] was 17 each time.
